Experimental data: patent publication US11865126B2, “Method for treating anxiety disorders, headache disorders, and eating disorders with psilocybin” (priority 2019, dated 2024)

Columns and labels:
[1] = Binge eating model: body weight; details: 1, 3 and 10 mg/kg IP
healthy subjects = assay: Pictorial Empathy Test (PET); type: in vivo, human
Method: In some embodiments, the Pictorial Empathy Test (PET) is utilized to evaluate the effect of psilocybin on affective empathy.
The following list of outcome measures are non-exhaustive. • a. The short-term change from Baseline (Day −1 [Visit 2]) to Day 7 (Visit 5) in cognitive measures of attention, spatial and working memory and executive function was measured by a composite score of the CANTAB Panel (Spatial Working Memory [SWM], Rapid Visual Information Processing [RVP], Paired Associates Learning [PAL]). • b. The short-term change from Baseline (Day −1 [Visit 2]) to Day 7 (Visit 5) in Social Cognition Panel scales (Pictorial Empathy Test [PET], Reading the Mind in the Eyes Test [RMET], Toronto Empathy Questionnaire [TEQ], Social Value Orientation [SVO], Scale of Social Responsibility [SSR]). • c. The change from Baseline (Day −1 [Visit 2]) to Day 28 (Visit 6) in cognitive measures of attention, spatial and working memory and executive function as measured by a composite score of the CANTAB Panel (SWM, RVP, PAL). • d. The long-term change from Baseline (Day −1 [Visit 2]) to Day 84 (Visit 7) in Social Cognition Panel scales (PET, RMET, TEQ, SVO, SSR). • e. Dose-related differences between cognitive effects of psilocybin at Baseline (Day −1 [Visit 2]), Day 7 (Visit 5) and Day 28 (Visit 6), as measured by a composite score of the CANTAB Panel (SWM, RVP, PAL). • f. Dose-related differences between psychological effects of psilocybin at Baseline (Day −1 [Visit 2]), Day 7 (Visit 5) and Day 84 (Visit 7), as measured by Social Cognition Panel scales (PET, RMET, TEQ, SVO, SSR). • g. Differences in cognitive effects of psilocybin between psilocybin-naïve and experienced subjects at Baseline (Day −1 [Visit 2]), Day 7 (Visit 5) and Day 28 (Visit 6), as measured by a composite score of the CANTAB Panel (SWM, RVP, PAL). • h. Differences in Positive and Negative Affect Schedule (PANAS) after study drug administration on Day 0 (Visit 3). • i. Differences between psilocybin and placebo in the Emotion Recognition Test (ERT), Intra-Extra Dimensional Set Shift (IED), One Touch Stockings (OTS), Verbal Fluency and Digit Span Forward at Day 7 (Visit 5). • j. A composite score of the CANTAB Panel, including the following tests: • i. Spatial Working Memory (SWM) (performed at Visit 2, Visit 5, and Visit 6). • ii. Rapid Visual Information Processing (RVP) (performed at Visit 2, Visit 5, and Visit 6). • iii. Paired Associates Learning (PAL) (performed at Visit 2, Visit 5, and Visit 6). • k. Cognitive Flexibility Panel • i. Emotion Recognition Task (ERT) (performed at Visit 5). • ii. Intra-Extra Dimensional Set Shift (IED) (performed at Visit 5). • iii. One Touch Stockings (OTS) (performed at Visit 5). • iv. Verbal Fluency (performed at Visit 5). • v. Digit Span Forward (performed at Visit 5). • l. Five Dimension Altered States of Consciousness questionnaire (5D-ASC) (performed at Visit 3). • m. PANAS (performed at Visit 2 and Visit 3). • n. NEO-Five Factor Inventory (NEO-FFI) (performed at Visit 2, Visit 5, and Visit 7). • o. Symptom Checklist-90 item (SCL-90) (performed at Visit 2, Visit 5, and Visit 7). • p. Life Changes Inventory (LCI): The LCI measures changes in attitudes and values after near-death experiences often used to evaluate personal transformation following spiritually oriented experiences and practices. (performed at Visit 5 and Visit 7). • q. Social Cognition Panel scales • i. Pictorial Empathy Test (PET) (performed at Visit 2, Visit 5, and Visit 7). • ii. Reading the Mind in the Eyes Test (RMET) (performed at Visit 2, Visit 5, and Visit 7). • iii. Social Value Orientation (SVO) (performed at Visit 2, Visit 5, and Visit 7). • iv. Toronto Empathy Questionnaire (TEQ) (performed at Visit 2, Visit 5, and Visit 7). • v. Scale of Social Responsibility (SSR) (performed at Visit 2, Visit 5, and Visit 7). • r. Sheehan Suicidality Tracking Scale (SSTS) • s. Mini International Neuropsychiatric Interview (MINI). • t. […]

CN(C)CCc1c[nH]c2cccc(OP(=O)(O)O)c12 [psilocybin]
Overall body weight [1]: not affected
PET change from baseline, LS mean difference Psilocybin 10 mg - Placebo (healthy subjects; Day 7, MMRM): −0.1
PET change from baseline, LS mean difference Psilocybin 25 mg - Placebo (healthy subjects; Day 7, MMRM): 0.2
PET change from baseline, LS mean difference Psilocybin 25 mg-10 mg (healthy subjects; Day 7, MMRM): 0.3
PET change from baseline, LS mean difference Psilocybin 10 mg - Placebo (healthy subjects; Day 84, MMRM): −0.1
PET change from baseline, LS mean difference Psilocybin 25 mg - Placebo (healthy subjects; Day 84, MMRM): 0.1
PET change from baseline, LS mean difference Psilocybin 25 mg-10 mg (healthy subjects; Day 84, MMRM): 0.3
